Data taken from patent publication US5252571A, “1,4-benzothiazine-2-acetic acid derivatives” (Sapporo Breweries Limited, priority 1990, dated 1993).
Read-outs that look alike come from different tables or passages of the source.

Columns and labels:
[1] = biological target: T1, human placenta aldose reductase (Homo sapiens, UniProt P15121); assay: Aldose reductase of human origin inhibitory activity; format: biochemical; details: for IC50: d1-glyceraldehyde 3 mM, pH 6.2, 25° C., read-out: IC50 HPAR (human placenta aldose reductase; head prints HPAP); for Ratio HPALR/HPAR: ratio of IC50 aldehyde reductase to aldose reductase, human placenta
T1 construct: The aldose reductase enzyme standard was prepared from human placenta; from tissue; host or cells: human placenta
Protocol: (§1) That is, human placenta stored at -80° C. was homogenized in distilled water followed by centrifugation at 10,000 XG for 15 minutes. […] The dialysate was applied to DEAE-cellulose column. The fraction containing aldose reductase activity eluted by salt concentration gradient was dialyzed and used as aldose reductase enzyme standard. Furthermore, after fractionation with ammonium sulfate solution, the dialysate was applied to Red Sepharose CL-6B, the fraction containing aldehyde reductase activity eluted by salt concentration gradient was dialyzed and used as aldehyde reductase enzyme standard.
That is, 25 μl of the enzyme solution described above and 25 μl of a drug solution in 1% DMSO having various concentrations were added to 200 μl of 40 Mm phosphate buffer (pH 6.2) prepared to contain 0.4 M lithium sulfate and 0.1 mM NADPH (reduced nicotinamide adenine dinucleotide phosphate) in final concentrations and containing 3 mM d1-glyceraldehyde as substrate, respectively.

[2] = test system: tissue sorbitol in streptozotocin-induced diabetic rats; assay: Inhibitory activity of accumulation of tissue sorbitol in streptozotocin-induced diabetic rats; format: in vivo, Sprague-Dawley rats; details: 30 mg/kg oral 4, 8 and 24 hours after streptozotocin, control = 100%, Tukey's test *p < 0.05, **p < 0.01; for Accumulation of Tissue Sorbitol (%), Nerve: sciatic nerve
Protocol: 4) Inhibitory activity of accumulation of tissue sorbitol in streptozatocini-induced diabetic rats.
Sprague-Dawley rats (male,6 weeks of age, one group composed of 5 to 6 rats), fasted overnight, were made diabetic by single intravenous injection of 60 mg/kg body weight of streptozotocin (SIGMA Co. ) , which had been freshly dissolved in normal saline solution.
The compound was orally administered in the form of 0.5% carboxymethylcellulose suspension in a dose of 30 mg/kg 4, 8 and 24 hours after the injection of streptozotocin. During the test, rats were free access to feed and water. Three hours after the final administration, the sorbitol contens in tissues (red blood cell, sciatic nerve, lens) Were determined by the enzyme method of Bergmeyer et al. [cf., H. Y. Bergmeyer et al., Methods of Enzymatic Analysis, 3, 1323-1330, 1974], using SDH (sorbitol dehydrogenase) and AND (β-nicotinamide adenine dinucleotide). The results are shown by percentage (%) when the value obtained with control group administered with 0.5% carboxymethylcellulose solution as a solvent instead of the compound was made 100%.

aldose reductase = biological target: T2, aldose reductase (Sus scrofa, UniProt P80276); assay: Aldose reductase inhibitory activity (porcine crystalline lens enzyme); format: biochemical
T2 construct: porcine crystalline lens stored at -80° C. was homogenized in distilled water; from tissue; host or cells: porcine crystalline lens
Protocol: Aldose reductase enzyme standard was prepared from porcine crystalline lens by the method of Hayman et al. (cf., S. Hayman et al., Journal of Biological Chemistry, 240, 877-882, 1965). That is, porcine crystalline lens stored at -80° C. was homogenized in distilled water followed by centrifugation at 10,000 XG for 15 minutes. The supernatant was dissolved to make 40% ammonium sulfate solution. The supernatant centrifuged at 10,000 XG for further 10 minutes was dialyzed to 0.05 M sodium chloride solution overnight. The thus obtained dialysate was used as the enzyme standard.
The activity of aldose reductase was determined by the method of Hayman et al. supra. That is, 25 μl of the enzyme solution described above and […] of a drug solution in 1% DMSO having various concentrations were added to 200 μl of 40 mM phosphate buffer (pH 6.2) prepared to contain […] lithium sulfate and 0.1 MM NADPH (reduced nicotinamide adenine dinucleotide phosphate) in final concentrations and Containing 3 mM d1-glyceraldehyde as substrate, respectively. Thereafter, the mixture was reacted at 25° C. for 2 minutes and change in absorbance at 340 nm was determined using COBAS FARA II (Roche Co.).

[3] = test system: sorbitol in lens withdrawn from rat; assay: Activity for preventing accumulation of sorbitol in lens withdrawn from rat; format: cell-based, SD rat; details: 50 mM glucose, 10^-6 M test drug, 4 hours, 1% DMSO = 100%, read-out: Sorbitol Content (%)
Protocol: 2) Activity for preventing accumulation of sorbitol in lens withdrawn from rat
The lens withdrawn from SD rats of 7 to 8 weeks age was incubated in 2.0 ml of Kreb's solution (pH 7. 4) containing 50 mM glucose and 10^-6 M test drug for 4 hours. The sorbitol content formed in the tissue was assayed by the enzyme method of Bergmeyer et al. [cf., H. Y. Bergmeyer et al., Methods of Enzymatic Analysis, 3, 1323-1330, 19741 using SDH (Sorbitol dehydrogenase) and AND (β-nicotinamide adenine dinucleotide). The sorbitol content was made 100% when 1% DMSO as a solvent was added in place of the drug and the activity of the drug was determined.

[4] = biological target: T3, human placenta aldehyde reductase (Homo sapiens, UniProt P14550); assay: Aldehyde reductase of human origin inhibitory activity (specificity); format: biochemical; details: 15 mM glucuronate, pH 7.0, read-out: 10 μM inhibition % HPALR
T3 construct: the fraction containing aldehyde reductase activity eluted by salt concentration gradient was dialyzed and used as aldehyde reductase enzyme standard; from tissue; host or cells: human placenta
T3 sequence (P14550 1-325): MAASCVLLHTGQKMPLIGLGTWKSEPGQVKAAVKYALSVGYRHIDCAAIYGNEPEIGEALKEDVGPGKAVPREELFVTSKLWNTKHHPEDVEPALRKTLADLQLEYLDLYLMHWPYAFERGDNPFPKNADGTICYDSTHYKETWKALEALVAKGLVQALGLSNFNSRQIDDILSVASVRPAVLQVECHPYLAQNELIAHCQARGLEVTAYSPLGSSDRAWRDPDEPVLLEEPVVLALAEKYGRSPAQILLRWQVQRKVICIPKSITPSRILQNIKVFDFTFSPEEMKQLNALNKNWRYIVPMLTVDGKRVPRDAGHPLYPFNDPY
Protocol: as §1
That is, the activity was determined in a manner similar to the case of determining aldose reductase activity, using 200 mM phosphate buffer (pH 7.0) prepared to contain 0.1 mM NADPH in a final concentration and 15 mM glucuronate as substrate.

ICR strain mice = assay: Safety test, single oral administration in mice with 14 days observation; format: in vivo; details: 300 mg/kg oral, male ICR mice
Protocol: Next, safety of the compounds of the present invention was verified by the following test.
After normal ICR strain mice (male, 7 weeks age, 5 mice being into one group) was fasted for 18 hours, each compound (300 mg/kg) of Examples 1311, 132, 134, 156, 173, 179, 183 and 188 was orally administered in the form of 0.5% carboxymethylcellulose suspension. In the control group, 0.5% carboxymethylcellulose solution alone was orally administered. […] During the observation, mice were free access to feed and water.

[5] = d1-glyceraldehyde 3 mM, pH 6.2, 25° C., 2 minutes

| IC50 [1] | Ratio HPALR/HPAR [1] | IC50 (aldose reductase; [5]) | inhibition at 10 µM [4] | SMILES | Accumulation of Tissue Sorbitol (%), Lens [2] | Accumulation of Tissue Sorbitol (%), Red Blood Cell [2] | Accumulation of Tissue Sorbitol (%), Nerve [2] | activity at 1 µM [3] | body weight (ICR strain mice) | mice dead (ICR strain mice) | IC50 (aldose reductase; read-out: IC50 (50% inhibitory concentration, aldose reductase), d1-glyceraldehyde 3 mM, pH 6.2, 25° C., 2 minutes) |
| --- | --- | --- | --- | --- | --- | --- | --- | --- | --- | --- | --- |
| 9.3 nM | > 1075 | 9.9 nM | 18.5% | O=C(O)CC1Sc2ccccc2N(Cc2nc3c(F)c(F)ccc3s2)C1=O (stereo not drawn) [Example 189, 2-[4-(4,5-Difluorobenzothiazol-2-yl)methyl-3,4-dihydro-3-oxo-2H-1,4-benzothiazin-2-yl]acetic acid] | 30.7% | 16.6% | 1.1% | 37% |  |  |  |
| 12 nM | > 833 |  | 32.9% | Cc1ccc2c(c1)N(Cc1nc3c(F)c(F)cc(F)c3s1)C(=O)C(CC(=O)O)S2 (stereo not drawn) [Example 165, 2-[4-(4,5,7-Trifluorobenzothiazol-2-yl)methyl-6-methyl-3,4-dihydro-3-oxo-2H-1,4-benzothiazin-2-yl]acetic acid] |  |  |  |  |  |  |  |
|  |  | 21 nM |  | CC(C)c1cccc2c1OC(C(C)C)C(=S)N2CC(=O)O (stereo not drawn) [Compound A, 3,4-dihydro-2,8-diisopropyl-3-thioxo-2H-1,4-benzoxazine-4-acetic acid, reference compound] | 87.3% | 53.7% | 54.9% | 56% |  |  |  |
| 13 nM | > 769 |  | 28.6% | O=C(O)CC1Sc2c(F)cccc2N(Cc2nc3c(Cl)c(Cl)ccc3s2)C1=O (stereo not drawn) [Example 167, 2-[4-(4,5-Dichlorobenzothiazol-2-yl)methyl-8-fluoro-3,4-dihydro-3-oxo-2H-1,4-benzothiazin-2-yl]acetic acid] |  |  |  |  |  |  |  |

| SMILES | IC50 [1] | Ratio HPALR/HPAR [1] | IC50 (aldose reductase; [5]) | inhibition at 10 µM [4] | Accumulation of Tissue Sorbitol (%), Lens [2] | Accumulation of Tissue Sorbitol (%), Red Blood Cell [2] | Accumulation of Tissue Sorbitol (%), Nerve [2] | activity at 1 µM [3] | body weight (ICR strain mice) | mice dead (ICR strain mice) | IC50 (aldose reductase; read-out: IC50 (50% inhibitory concentration, aldose reductase), d1-glyceraldehyde 3 mM, pH 6.2, 25° C., 2 minutes) |
| --- | --- | --- | --- | --- | --- | --- | --- | --- | --- | --- | --- |
| O=C(O)CC1Sc2cc(F)ccc2N(Cc2nc3c(F)c(F)cc(F)c3s2)C1=O (stereo not drawn) [Example 188, 2-[4-(4,5,7-Trifluorobenzothiazol-2-yl)methyl-7-fluoro-3,4-dihydro-3-oxo-2H-1,4-benzothiazin-2-yl]acetic acid] | 14 nM | > 714 | 9.7 nM | 19.1% | 32.5% | 15.7% | 0.0% | 38% | progressed as in the control group | none |  |
| O=C(O)CC1Sc2ccccc2N(Cc2nc3c(F)c(F)cc(F)c3s2)C1=O (stereo not drawn) [Example 183, 2-[4-(4,5,7-Trifluorobenzothiazol-2-yl)methyl-3,4-dihydro-3-oxo-2H-1,4-benzothiazin-2-yl]acetic acid] | 10 nM | > 1000 |  | 19.3% | 39.1% | 25.8% | 3.1% | 29% | progressed as in the control group | none | 9.5 nM |
